Laboratory results from patent US7803822B2, “Triazole derivative and use thereof” (Takeda Pharmaceutical Company Limited, priority 2005, dated 2010).

How the values were obtained:
human PAR-1 = target: T1, human PAR-1 (Homo sapiens, UniProt P25116); assay: GTPγS binding assay with membrane fraction of human PAR-1-expressing cells; assay type: biochemical; conditions: [35S]-GTPγS binding to human PAR-1-expressing cell membrane fraction; agonist peptide SFLLRN-NH2
T1 construct: expressed in transfected cells; host or cells: CHO-K1 (transformant flag/trn/CHO-K1)
T1 sequence (P25116 22-425): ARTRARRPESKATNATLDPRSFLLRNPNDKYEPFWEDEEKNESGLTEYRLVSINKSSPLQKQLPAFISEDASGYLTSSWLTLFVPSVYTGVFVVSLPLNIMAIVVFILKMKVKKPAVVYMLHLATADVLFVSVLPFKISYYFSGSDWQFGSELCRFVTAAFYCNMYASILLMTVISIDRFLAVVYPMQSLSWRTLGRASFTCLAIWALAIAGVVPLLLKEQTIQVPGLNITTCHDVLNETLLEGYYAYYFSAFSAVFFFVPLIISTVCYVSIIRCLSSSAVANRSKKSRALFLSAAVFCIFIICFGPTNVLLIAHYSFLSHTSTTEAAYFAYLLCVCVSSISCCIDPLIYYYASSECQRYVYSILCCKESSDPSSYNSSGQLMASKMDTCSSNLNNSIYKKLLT
Procedure: The preparation method of the membrane fraction used for the GTPγS binding assay is shown below.
Human PAR-1-expressing cells were inoculated to an F500 flask at 1.8×10^5 cells/flask, and the cells were cultured for 2 days. The cells were detached with saline containing 0.02% EDTA. The cells were centrifuged (2000 rpm, 10 min), cell pellets were re-suspended in 12 ml of homogenate buffer (10 mM NaHCO3, 1 mM EDTA, protease inhibitor cocktail, pH 7.4), and homogenized by Polytron™. The residual cells were removed by centrifugation (2000 rpm, 10 min), and the supernatant was ultracentrifuged (Beckman Instruments 70 Ti type rotor, 30000 rpm, 1 hr) to give a membrane fraction of human PAR-1-expressing cells in a sediment, which was preserved at −80° C. and dissolved before use for an assay.
The measurement method of the GTPγS binding activity is shown below.
Then, the reaction mixture was filtered through a GF/C filter, washed 4 times with 300 μL of saline, and the radioactivity of the filter was measured by a TopCount scintillation counter.
The concentration (IC50 value) of the test compound necessary for inhibiting the GTPγS binding activity by 50% was calculated using PRISM3.0 (PraphPad software).

[1] = system: platelet rich plasma (PRP); assay: Platelet aggregation test (platelet rich plasma), thrombin-induced; assay type: cell-based; conditions: human PRP, thrombin at minimum concentration causing maximum aggregation; test compound concentration not given
Procedure: Platelet Aggregation Test (Platelet Rich Plasma)
Using a syringe filled in advance with 3.8% sodium citrate solution (Chitral: Yamanouchi Pharmaceutical Co., Ltd.), its 9-fold volume of venous blood was taken from healthy volunteers. After blood sampling, the blood was centrifuged at room temperature, 2700 G for […] and 15 min to give platelet rich plasma (PRP) and platelet poor plasma (PPP), respectively. PRP was applied to an automated blood cell counter (Sysmex) to adjust the platelet count to 300,000/μL, and fibrin polymerization inhibitory peptide was added thereto to a final concentration of 4 mM. The platelet aggregation rate was measured using an aggregometer (Kowa). To be specific, 200 μL of PRP was placed in a cuvette with a microstirrer, preheated at 37° C. for 2 min, and a test compound solution (20 μL) was added. The mixture was further preheated at 37° C. for 2 min with stirring (1000 rpm), thrombin (20 μL) was added, and changes in the transmittance caused by platelet aggregation were recorded over time. Thrombin was used at a minimum concentration causing maximum aggregation, and the aggregation suppressive rate (%) was calculated from the ratio of the maximum aggregation rate with addition of test compound to the maximum aggregation rate of control group. The test compound was dissolved in dimethyl sulfoxide and diluted with saline before use.

Row | SMILES | IC50 (human PAR-1) [µM] | aggregation suppressive rate (%) [1] [%]
1 | CCCc1c(C(=O)NCc2ccc(OC)cc2)nnn1-c1ccc(NC(C)=O)cc1 [Compound 2] | 2.1 | 39
2 | CCCc1c(C(=O)NC2CC2)nnn1-c1ccc(NC(C)=O)cc1 [Compound 1, 1-[4-(acetylamino)phenyl]-N-cyclopropyl-5-propyl-1H-1,2,3-triazole-4-carboxamide, reference compound] | 1.9 | 66
3 | CCCc1c(C(=O)NCCOc2ccccc2)nnn1-c1ccc(NC(C)=O)cc1 [Compound 3] | 1.9 | –
